# Test system: Phakopsora pachyrhizi (F129L)
# Assay: Protective control of soybean rust on soybeans (PHAKPA P2)
# Format: in vivo
# Conditions: protective P2, 4 ppm, F129L isolate
row,SMILES,% PHAKPA (F129L) Disease level P2 at 4 ppm [%]
1,C=Cc1cccc(/C(=N\OC)C(=O)NC)c1CO/N=C(\C)c1ccccc1 [compound 400],2
2,C#Cc1cccc(/C(C)=N/OCc2c(C)cccc2/C(=N\OC)C(=O)NC)c1F [compound 401],17
3,CO/C=C(/C(=O)OC)c1cccc(C)c1CO/N=C(\C)c1cc(F)c(F)cc1CC(F)(F)F [compound 405],97
4,CNC(=O)/C(=N/OC)c1cccc(C)c1CO/N=C(\C)c1cc(F)c(F)cc1CC(F)(F)F [compound 406],97
5,CNC(=O)/C(=N/OC)c1cccc(C)c1CO/N=C(\C)c1ccc(Cc2ccccc2)cc1C(F)(F)F [compound 407],12
6,CO/N=C(/C(=O)OC)c1cccc(C)c1CO/N=C(\C)c1ccc(Cc2ccccc2)cc1C(F)(F)F [compound 408],30
7,CO/N=C(/C(=O)OC)c1cccc(C)c1CO/N=C(\C)c1cc(F)c(F)cc1C(F)(F)F [compound 409],77
8,CNC(=O)/C(=N/OC)c1cccc(C)c1CO/N=C(\C)c1cc(F)c(F)cc1C(F)(F)F [compound 410],9
9,CNC(=O)/C(=N/OC)c1cccc(C)c1CO/N=C(\C)c1ccc(Cl)c(F)c1CC(F)(F)F [compound 412],47
10,CNC(=O)/C(=N/OC)c1cccc(C)c1CO/N=C(\C)c1ccc(-c2ccccc2)cc1C(F)(F)F [compound 413],40
11,CO/N=C(/C(=O)OC)c1cccc(C)c1CO/N=C(\C)c1ccc(-c2ccccc2)cc1C(F)(F)F [compound 414],53
12,CNC(=O)/C(=N/OC)c1cccc(C)c1CO/N=C(\C)c1ccc(/C(C)=N\OC)cc1OC(F)(F)F [compound 415],47
13,CO/N=C(/C(=O)OC)c1cccc(C)c1CO/N=C(\C)c1ccc(Cc2ccccc2)cc1OC(F)(F)F [compound 416],57
14,CO/N=C(/C)c1ccc(/C(C)=N/OCc2c(C)cccc2/C(=N\OC)C(=O)OC)c(C(F)(F)F)c1 [compound 417],35
15,CO/N=C(/C)c1ccc(/C(C)=N/OCc2c(C)cccc2/C(=N\OC)C(=O)OC)c(OC(F)(F)F)c1 [compound 418],70
16,CNC(=O)/C(=N/OC)c1cccc(C)c1CO/N=C(\C)c1ccc(Cc2ccccc2)cc1OC(F)(F)F [compound 419],40
17,CNC(=O)/C(=N/OC)c1cccc(C)c1CO/N=C(\C)c1ccc(/C(C)=N\OC)cc1C(F)(F)F [compound 420],8

# Same assay, conditions: protective P2, 16 ppm, F129L isolate
row,SMILES,% PHAKPA (F129L) Disease level P2 at 16 ppm [%]
1,C=Cc1cccc(/C(=N\OC)C(=O)NC)c1CO/N=C(\C)c1ccccc1 [compound 400],0
2,C#Cc1cccc(/C(C)=N/OCc2c(C)cccc2/C(=N\OC)C(=O)NC)c1F [compound 401],5
3,CO/C=C(/C(=O)OC)c1cccc(C)c1CO/N=C(\C)c1cc(F)c(F)cc1CC(F)(F)F [compound 405],27
4,CNC(=O)/C(=N/OC)c1cccc(C)c1CO/N=C(\C)c1cc(F)c(F)cc1CC(F)(F)F [compound 406],30
5,CNC(=O)/C(=N/OC)c1cccc(C)c1CO/N=C(\C)c1ccc(Cc2ccccc2)cc1C(F)(F)F [compound 407],6
6,CO/N=C(/C(=O)OC)c1cccc(C)c1CO/N=C(\C)c1ccc(Cc2ccccc2)cc1C(F)(F)F [compound 408],12
7,CO/N=C(/C(=O)OC)c1cccc(C)c1CO/N=C(\C)c1cc(F)c(F)cc1C(F)(F)F [compound 409],40
8,CNC(=O)/C(=N/OC)c1cccc(C)c1CO/N=C(\C)c1cc(F)c(F)cc1C(F)(F)F [compound 410],0
9,CNC(=O)/C(=N/OC)c1cccc(C)c1CO/N=C(\C)c1ccc(Cl)c(F)c1CC(F)(F)F [compound 412],6
10,CNC(=O)/C(=N/OC)c1cccc(C)c1CO/N=C(\C)c1ccc(-c2ccccc2)cc1C(F)(F)F [compound 413],15
11,CO/N=C(/C(=O)OC)c1cccc(C)c1CO/N=C(\C)c1ccc(-c2ccccc2)cc1C(F)(F)F [compound 414],9
12,CNC(=O)/C(=N/OC)c1cccc(C)c1CO/N=C(\C)c1ccc(/C(C)=N\OC)cc1OC(F)(F)F [compound 415],5
13,CO/N=C(/C(=O)OC)c1cccc(C)c1CO/N=C(\C)c1ccc(Cc2ccccc2)cc1OC(F)(F)F [compound 416],27
14,CO/N=C(/C)c1ccc(/C(C)=N/OCc2c(C)cccc2/C(=N\OC)C(=O)OC)c(C(F)(F)F)c1 [compound 417],18
15,CO/N=C(/C)c1ccc(/C(C)=N/OCc2c(C)cccc2/C(=N\OC)C(=O)OC)c(OC(F)(F)F)c1 [compound 418],33
16,CNC(=O)/C(=N/OC)c1cccc(C)c1CO/N=C(\C)c1ccc(Cc2ccccc2)cc1OC(F)(F)F [compound 419],18
17,CNC(=O)/C(=N/OC)c1cccc(C)c1CO/N=C(\C)c1ccc(/C(C)=N\OC)cc1C(F)(F)F [compound 420],0

# Test system: Phakopsora pachyrhizi (F129L)
# Assay: Protective control of soybean rust on soybeans (PHAKPA P6)
# Format: in vivo
# Conditions: protective P6, 4 ppm, F129L isolate
row,SMILES,% PHAKPA (F129L) Disease level P6 at 4 ppm [%]
1,C=Cc1cccc(/C(=N\OC)C(=O)NC)c1CO/N=C(\C)c1ccccc1 [compound 400],8
2,C#Cc1cccc(/C(C)=N/OCc2c(C)cccc2/C(=N\OC)C(=O)NC)c1F [compound 401],32
3,CO/C=C(/C(=O)OC)c1cccc(C)c1CO/N=C(\C)c1cc(F)c(F)cc1CC(F)(F)F [compound 405],70
4,CNC(=O)/C(=N/OC)c1cccc(C)c1CO/N=C(\C)c1cc(F)c(F)cc1CC(F)(F)F [compound 406],67
5,CNC(=O)/C(=N/OC)c1cccc(C)c1CO/N=C(\C)c1ccc(Cc2ccccc2)cc1C(F)(F)F [compound 407],17
6,CO/N=C(/C(=O)OC)c1cccc(C)c1CO/N=C(\C)c1ccc(Cc2ccccc2)cc1C(F)(F)F [compound 408],33
7,CO/N=C(/C(=O)OC)c1cccc(C)c1CO/N=C(\C)c1cc(F)c(F)cc1C(F)(F)F [compound 409],83
8,CNC(=O)/C(=N/OC)c1cccc(C)c1CO/N=C(\C)c1cc(F)c(F)cc1C(F)(F)F [compound 410],35
9,CNC(=O)/C(=N/OC)c1cccc(C)c1CO/N=C(\C)c1ccc(Cl)c(F)c1CC(F)(F)F [compound 412],40
10,CNC(=O)/C(=N/OC)c1cccc(C)c1CO/N=C(\C)c1ccc(-c2ccccc2)cc1C(F)(F)F [compound 413],33
11,CO/N=C(/C(=O)OC)c1cccc(C)c1CO/N=C(\C)c1ccc(-c2ccccc2)cc1C(F)(F)F [compound 414],53
12,CNC(=O)/C(=N/OC)c1cccc(C)c1CO/N=C(\C)c1ccc(/C(C)=N\OC)cc1OC(F)(F)F [compound 415],67
13,CO/N=C(/C(=O)OC)c1cccc(C)c1CO/N=C(\C)c1ccc(Cc2ccccc2)cc1OC(F)(F)F [compound 416],67
14,CO/N=C(/C)c1ccc(/C(C)=N/OCc2c(C)cccc2/C(=N\OC)C(=O)OC)c(C(F)(F)F)c1 [compound 417],63
15,CO/N=C(/C)c1ccc(/C(C)=N/OCc2c(C)cccc2/C(=N\OC)C(=O)OC)c(OC(F)(F)F)c1 [compound 418],73
16,CNC(=O)/C(=N/OC)c1cccc(C)c1CO/N=C(\C)c1ccc(Cc2ccccc2)cc1OC(F)(F)F [compound 419],60
17,CNC(=O)/C(=N/OC)c1cccc(C)c1CO/N=C(\C)c1ccc(/C(C)=N\OC)cc1C(F)(F)F [compound 420],12

# Same assay, conditions: protective P6, 16 ppm, F129L isolate
row,SMILES,% PHAKPA (F129L) Disease level P6 at 16 ppm [%]
1,C=Cc1cccc(/C(=N\OC)C(=O)NC)c1CO/N=C(\C)c1ccccc1 [compound 400],0
2,C#Cc1cccc(/C(C)=N/OCc2c(C)cccc2/C(=N\OC)C(=O)NC)c1F [compound 401],4
3,CO/C=C(/C(=O)OC)c1cccc(C)c1CO/N=C(\C)c1cc(F)c(F)cc1CC(F)(F)F [compound 405],27
4,CNC(=O)/C(=N/OC)c1cccc(C)c1CO/N=C(\C)c1cc(F)c(F)cc1CC(F)(F)F [compound 406],23
5,CNC(=O)/C(=N/OC)c1cccc(C)c1CO/N=C(\C)c1ccc(Cc2ccccc2)cc1C(F)(F)F [compound 407],4
6,CO/N=C(/C(=O)OC)c1cccc(C)c1CO/N=C(\C)c1ccc(Cc2ccccc2)cc1C(F)(F)F [compound 408],13
7,CO/N=C(/C(=O)OC)c1cccc(C)c1CO/N=C(\C)c1cc(F)c(F)cc1C(F)(F)F [compound 409],73
8,CNC(=O)/C(=N/OC)c1cccc(C)c1CO/N=C(\C)c1cc(F)c(F)cc1C(F)(F)F [compound 410],1
9,CNC(=O)/C(=N/OC)c1cccc(C)c1CO/N=C(\C)c1ccc(Cl)c(F)c1CC(F)(F)F [compound 412],6
10,CNC(=O)/C(=N/OC)c1cccc(C)c1CO/N=C(\C)c1ccc(-c2ccccc2)cc1C(F)(F)F [compound 413],15
11,CO/N=C(/C(=O)OC)c1cccc(C)c1CO/N=C(\C)c1ccc(-c2ccccc2)cc1C(F)(F)F [compound 414],15
12,CNC(=O)/C(=N/OC)c1cccc(C)c1CO/N=C(\C)c1ccc(/C(C)=N\OC)cc1OC(F)(F)F [compound 415],11
13,CO/N=C(/C(=O)OC)c1cccc(C)c1CO/N=C(\C)c1ccc(Cc2ccccc2)cc1OC(F)(F)F [compound 416],25
14,CO/N=C(/C)c1ccc(/C(C)=N/OCc2c(C)cccc2/C(=N\OC)C(=O)OC)c(C(F)(F)F)c1 [compound 417],22
15,CO/N=C(/C)c1ccc(/C(C)=N/OCc2c(C)cccc2/C(=N\OC)C(=O)OC)c(OC(F)(F)F)c1 [compound 418],57
16,CNC(=O)/C(=N/OC)c1cccc(C)c1CO/N=C(\C)c1ccc(Cc2ccccc2)cc1OC(F)(F)F [compound 419],12
17,CNC(=O)/C(=N/OC)c1cccc(C)c1CO/N=C(\C)c1ccc(/C(C)=N\OC)cc1C(F)(F)F [compound 420],1
